Like-named read-outs stand apart in the source and are kept apart here. Blank lines part the entries; values can stand above or below the molecule they belong to.
How the values were obtained:
[1] = Urine time course of betel biomarkers after betel chewing; settings: for return to baseline levels in urine (time post-chewing) / time of peak in urine post-chewing: participant 1
[2] = Stability study of betel alkaloid standards in MeOH, HCl and NaOH at 45°C; format: physicochemical; settings: 1N NaOH; for fate of the carboxylic acids in basic conditions: after 24 h
[3] = for time of peak in saliva post-chewing: after one serving of betel nut/quid, n=4; for detected in saliva above the limit of detection up to (time after chewing): all participants
[4] = after infusion; cited from earlier work
[5] = cited from earlier work; for elimination half-life (t1/2): human urine
[6] = Hair analysis for betel related compounds; format: in vivo, human; settings: for levels in hair: hair sample from a tobacco consumer

return to baseline levels in urine (time post-chewing) [1]: approximately 8 h
time of peak in urine post-chewing [1]: approximately 2 h
fate of the carboxylic acids in basic conditions [2]: disappeared
return to baseline levels in saliva (time post-chewing) ([3]; saliva): 8 h
time of peak in saliva post-chewing ([3]; saliva): ≤ 2 h
detected in saliva above the limit of detection up to (time after chewing) ([3]; saliva): up to 8 h
SMILES: O=C(O)C1=CCCNC1 [guvacine]

SMILES: COC(=O)C1=CCCNC1 [guvacoline]
return to baseline levels in urine (time post-chewing) [1]: approximately 8 h
time of peak in urine post-chewing [1]: approximately 2 h
stability in basic conditions [2]: not stable
time to hydrolysis to the carboxylic acid [2]: up to 1 hour
return to baseline levels in saliva (time post-chewing) ([3]; saliva): 8 h
time of peak in saliva post-chewing ([3]; saliva): ≤ 2 h
detected in saliva above the limit of detection up to (time after chewing) ([3]; saliva): up to 8 h

SMILES: C=CCc1ccc(OC)c(OC2OC(C(=O)O)C(O)C(O)C2O)c1 (stereo not shown) [chavibetol glucuronide]
return to baseline levels in urine (time post-chewing) [1]: approximately 8 h
time of peak in urine post-chewing [1]: approximately 2 h

SMILES: COC(=O)C1=CCCN(C)C1 [arecoline]
return to baseline levels in urine (time post-chewing) [1]: approximately 8 h
time of peak in urine post-chewing [1]: approximately 2 h
stability in basic conditions [2]: not stable
time to hydrolysis to the carboxylic acid [2]: up to 1 hour
return to baseline levels in saliva (time post-chewing) ([3]; saliva): 8 h
time of peak in saliva post-chewing ([3]; saliva): ≤ 2 h
detected in saliva above the limit of detection up to (time after chewing) ([3]; saliva): up to 8 h
disappearance of arecoline from plasma [4]: ≥ 15 min
elimination half-life (t1/2) [5]: 0.97 h

SMILES: CN1CCC[C@H]1c1cccnc1 [nicotine]
levels in hair [6]: high levels

SMILES: CN1C(=O)CC[C@H]1c1cccnc1 [cotinine]
levels in hair [6]: high levels

SMILES: CN1CCC=C(C(=O)O)C1 [arecaidine]
return to baseline levels in urine (time post-chewing) [1]: approximately 8 h
time of peak in urine post-chewing [1]: approximately 2 h
fate of the carboxylic acids in basic conditions [2]: disappeared
return to baseline levels in saliva (time post-chewing) ([3]; saliva): 8 h
time of peak in saliva post-chewing ([3]; saliva): ≤ 2 h
detected in saliva above the limit of detection up to (time after chewing) ([3]; saliva): up to 8 h
elimination half-life (t1/2) [5]: 4.3 h

SMILES: CN1CCCC(C(=O)O)C1 (stereo not shown) [NMNA, N-methylnipecotic acid]
detection in urine samples ([1]; LC-MS): failed
detection in saliva samples ([3]; saliva, LC-MS): failed
elimination half-life (t1/2) [5]: 7.9 h
urinary NMNA excretion ([5]; subjects consumed water extracts of areca nuts): 1298 ng/mg creatinine
urinary excretion of NMNA relative to that of arecaidine ([5]; urine): < 25%
detection in hair samples ([6]; hair of participants who chewed betel nuts at least once daily for ½-2 h): could not detect

SMILES: C=CCc1ccc(OC)c(O)c1 [chavibetol]
detection in saliva ([3]; participant 2, who chewed exclusively betel nut): absence
detection in saliva ([3]; participants 1, 3 and 4, who consumed Piper betle leaves in their BQ): detected
return to baseline levels in saliva (time post-chewing) ([3]; saliva): 2 h
time of peak in saliva post-chewing ([3]; saliva): 0.5 to 1 h
